Format in all cases: in vivo
Test [1] concerns CAPBP (Capsella bursa-pastoris). The test is described as follows: greenhouse pre-emergence herbicidal test. The essentials:
(§1)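 Treatment is applied pre-emergence as an aqueous suspension or emulsion onto freshly sown loamy sand with about 3.0% humus. Injury is rated on a 0-100 scale after 2 to 4 weeks.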

In test [2] the test system is ECHCG (Echinocloa crus-galli). Briefly: greenhouse pre-emergence herbicidal test. The essentials:
as §1

In test [3] the test system is POLCO (Polygonum convolvulus). Briefly: greenhouse pre-emergence herbicidal test. In a few lines: as §1
In test [4] the test system is SETVI (Setaria viridis). The test is described as follows: greenhouse pre-emergence herbicidal test. The essentials: as §1
Test [5] relates to LAMPU (Lamium purpureum). Briefly: greenhouse pre-emergence herbicidal test. The essentials:
as §1

Test [6] has as its system APESV (Apera spica-venti). The test is described as follows: greenhouse pre-emergence herbicidal test. In a few lines:
as §1

The test system of test [7] is MATIN (Matricaria maritima). Briefly: greenhouse pre-emergence herbicidal test. Particulars: 2000 g/ha. In a few lines: as §1
For test [8], the system named is POAAN (Poa annua). The test is described as follows: greenhouse pre-emergence herbicidal test. In a few lines: as §1
In test [9] the test system is STEME (Stellaria media). Briefly: greenhouse pre-emergence herbicidal test. In a few lines: as §1
Test [10] concerns VIOAR (Viola arvensis). Briefly: greenhouse pre-emergence herbicidal test. In a few lines: as §1
Test [11] relates to THLAR (Thlaspi arvense). The test is described as follows: greenhouse pre-emergence herbicidal test. Particulars: 0.125 kg/ha. The essentials:
as §1

In test [12] the test system is ABUTH (Abutilon theophrasti). The test is described as follows: greenhouse post-emergence herbicidal test. The essentials:
(§2)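 Post-emergence greenhouse test on plants grown to 3–15 cm in loamy sand (~3.0% humus), sprayed with active ingredient suspended or emulsified in water. Plants held at 10-25 °C or 20-35 °C by species for 2 to 4 weeks, then damage scored visually 0–100 (100 = complete destruction of aerial parts, 0 = no damage).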

Test [13] relates to STEME (Stellaria media). The test is described as follows: greenhouse post-emergence herbicidal test. The essentials:
as §2

Test [14] deals with AMARE (Amaranthus retroflexus). Briefly: greenhouse post-emergence herbicidal test. The following applies: 62 g/ha. In a few lines: as §2
The subject of test [15] is SETVI (Setaria viridis). Briefly: greenhouse post-emergence herbicidal test. Particulars: 62 g/ha. In a few lines: as §2
In test [16] the test system is AMARE (Amaranthus retroflexus). Briefly: greenhouse pre-emergence herbicidal test. Particulars: 1000 g/ha. In a few lines:
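Pre-emergence spray of aqueous suspension/emulsion right after sowing; gentle irrigation, transparent hoods until rooted; 10-25° C. or 20-35° C. per species; scored over 2-4 weeks. Scale: ≥60 moderate, ≥70 good, ≥85 very good.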

For 19 compounds, herbicidal activity results are on record in US9549558B2, “Herbicidal azines” (BASF SE, priority 2012, dated 2017).

Consider `CCC(C)(Cl)c1nc(N)nc(Nc2c(F)c(F)c(F)c(F)c2F)n1` (stereo not drawn) [Example 200], for which the herbicidal activity result in [1] (1000 g/ha, CACBP) is on record as “very good (a very good herbicidal activity is given at values of at least 85)”; in [2] (1000 g/ha) it was “very good (a very good herbicidal activity is given at values of at least 85)”; in test [3] (1000 g/ha) it was “very good (a very good herbicidal activity is given at values of at least 85)”.
`CC(C)(F)c1nc(N)nc(Nc2c(F)cccc2F)n1` [Example 24]: the herbicidal activity result in test [3] (0.125 kg/ha) and in [4] (0.125 kg/ha) was “very good (a very good herbicidal activity is given at values of at least 85)” in each case.
For the compound `CC(C)(F)c1nc(N)nc(Nc2c(F)cc(Cl)cc2F)n1` [Example 97], the herbicidal activity entry in test [1] (250 g/ha, CAPBP) is given as “good (a good herbicidal activity is given at values of at least 70)”; in test [5] (250 g/ha) it was “good (a good herbicidal activity is given at values of at least 70)”.
For `Nc1nc(Nc2c(F)c(F)c(F)c(F)c2F)nc(C2(F)C(F)(F)C(F)(F)C(F)(F)C(F)(F)C2(F)F)n1` [Example 175], the herbicidal activity result in test [6] (494 g/ha) is “good (a good herbicidal activity is given at values of at least 70)”.
`CC(=O)N(c1nc(N)nc(C(C)(C)F)n1)c1c(F)c(F)c(F)c(F)c1F` [Example 291]: the herbicidal activity entry in test [7] and in test [8] (2000 g/ha) was “very good (a very good herbicidal activity is given at values of at least 85)” each time.
`COCN(c1nc(N)nc(C(C)(C)F)n1)c1c(F)c(F)c(F)c(F)c1F` [Example 305]: the herbicidal activity entry in test [3] (500 g/ha), in test [9] (500 g/ha) and in [10] (500 g/ha) was “very good (a very good herbicidal activity is given at values of at least 85)” each time.
Regarding `CC(C)(C)c1nc(N)nc(Nc2c(F)c(F)c(Br)c(F)c2F)n1` [Example 160], the herbicidal activity result is reported as “very good (a very good herbicidal activity is given at values of at least 85)” in [1] (125 g/ha, CAPBP); “very good (a very good herbicidal activity is given at values of at least 85)” in [5] (125 g/ha); “very good (a very good herbicidal activity is given at values of at least 85)” in test [9] (125 g/ha).
Regarding `CC(C)(F)c1nc(N)nc(Nc2cc(C(F)(F)F)cc(C(F)(F)F)c2)n1` [Example 46], the herbicidal activity entry in [11] is recorded as “very good (a very good herbicidal activity is given at values of at least 85)”.
Consider `CC(C)(Cl)c1nc(N)nc(Nc2c(F)cccc2F)n1` [Example 78], for which, in test [6] (125 g/ha), the herbicidal activity result was “good (a good herbicidal activity is given at values of at least 70)”.
As to `CC(C)(F)c1nc(N)nc(Nc2c(F)cccc2Cl)n1` [Example 35], the herbicidal activity entry in [12] (0.062 kg/ha) and in test [13] (0.062 kg/ha) was “very good (a very good herbicidal activity is given at values of at least 85)” throughout.
`CC(F)c1nc(N)nc(Nc2cc(F)c(F)c(F)c2)n1` (stereo not drawn) [Example 16]: the herbicidal activity result in test [12] (0.125 kg/ha) is listed as “good (a good herbicidal activity is given at values of at least 70)”; in test [13] (0.125 kg/ha), “moderate (A moderate herbicidal activity is given at values of at least 60)”.
As for `CC(O)c1nc(N)nc(Nc2c(F)c(F)c(F)c(F)c2F)n1` (stereo not drawn) [Example 69], the herbicidal activity result in test [7] and in test [8] (2000 g/ha) was “very good (a very good herbicidal activity is given at values of at least 85)” each time.
`CC(C)(C)C(=O)N(c1nc(N)nc(C(C)(C)C)n1)c1c(F)c(F)c(F)c(F)c1F` [Example 283]: the herbicidal activity result is on record as “very good (a very good herbicidal activity is given at values of at least 85)” in test [14] and “good (a good herbicidal activity is given at values of at least 70)” in test [15].
In the case of `CC(C)(F)c1nc(N)nc(Nc2ccc([N+](=O)[O-])cc2F)n1` [Example 39], the herbicidal activity result in [6] (0.031 kg/ha) is given as “moderate (A moderate herbicidal activity is given at values of at least 60)”.
With `CCc1nc(N)nc(Nc2c(F)c(F)c(F)c(F)c2F)n1` [Example 4], the herbicidal activity entry was “very good (a very good herbicidal activity is given at values of at least 85)” in [1] (0.125 kg/ha, CAPBP) and “very good (a very good herbicidal activity is given at values of at least 85)” in [5] (0.125 kg/ha).
For the compound `CC(C)(F)c1nc(N)nc(Nc2c(F)c(F)c(Cl)c(F)c2F)n1` [Example 128], the figures for the herbicidal activity entry in test [8] (125 g/ha) and in [10] (125 g/ha) were “very good (a very good herbicidal activity is given at values of at least 85)” and “good (a good herbicidal activity is given at values of at least 70)”, respectively.
In the case of `CCC(C)(F)c1nc(N)nc(Nc2c(F)ccc(F)c2F)n1` (stereo not drawn) [Example 114], the herbicidal activity result in [2] (32 g/ha), in [3] (32 g/ha) and in test [4] (32 g/ha) was “very good (a very good herbicidal activity is given at values of at least 85)” in each case.
`CC1(c2nc(N)nc(Nc3c(F)c(F)c(F)c(F)c3F)n2)CCCCC1` [Example 88]: the herbicidal activity result in [1] (125 g/ha, CAPBP) is recorded as “very good (a very good herbicidal activity is given at values of at least 85)”; in [5] (125 g/ha) it was “very good (a very good herbicidal activity is given at values of at least 85)”; in test [9] (125 g/ha), “very good (a very good herbicidal activity is given at values of at least 85)”.
Turning to `COc1cc(F)c(Nc2nc(N)nc(C(C)(C)F)n2)c(F)c1` [Example 116], the results for the herbicidal activity entry in [16] and in test [6] (1000 g/ha) were “good (a good herbicidal activity is given at values of at least 70)” and “very good (a very good herbicidal activity is given at values of at least 85)”, respectively.
